The test system of this experiment is SHSY5Y. Description: Analogue screening assay, measured by MTT. To be noted: as a percentage compared to SHMOOSE (SHMOOSE activity as 100%). Type of experiment: cell-based. The source says:
FIG. 10 depicts an analogue screening assay, measured by MTT. Top: each bar represents a fragment (25-amino acid in length) of SHMOOSE. Bottom: each bar represents a phosphomimetic fragment (25-amino acid in length) of SHMOOSE. Cell model is SHSY5Y. The Inventors made 103 analogues/derivatives (see Table 1).
The Inventors made 103 analogues (Table 1). Referring to FIG. 10, in the top figure, each bar represents a 25-amino acid fragment of the SHMOOSE peptide. […] The sequence length of the analogue is 14 amino acids and 3 different analysis windows of the analogue, each having 11 amino acids, were characterized. […]
On to “51 (LDDWLDQLLKDNDDPLVLGPKNFGA) [compound 51]”, for which the “% Efficacy” value was −132.69%.
Next, “27 (FGATPNKSNNHAHYYNHPNPDFPNS) [compound 27]”: −226.16%.
Consider “74 (GADPNKDNNHAHDDNHPNPDFPNDP) [compound 74]”, for which the “% Efficacy” value is recorded as −228.29%.
Next, “58 (LLKDNDDPLVLGPKNFGADPNKDNN) [compound 58]”: −58.59%; “65 (PLVLGPKNFGADPNKDNNHAHDDNH) [compound 65]”: −163.31%.
As to “22 (LGPKNFGATPNKSNNHAHYYNHPNP) [compound 22]”, the “% Efficacy” value is reported as −140.81%.
Then “1 (MPPCLTTWLSQLLKDNSYPLVLGPK) [compound 1]”, with 62.23%.
Next, “54 (WLDQLLKDNDDPLVLGPKNFGADPN) [compound 54]”: −45.99%.
Then “4 (CLTTWLSQLLKDNSYPLVLGPKNFG) [compound 4]”, with 12.47%; and “98 (MPPCITTWISQLLKDNSYPLVLGPKNFGATPNKSNNHAHYYNHPNPDFPNSPHPYHPR) [compound 98]”, with 1.709%.
For “72 (NFGADPNKDNNHAHDDNHPNPDFPN) [compound 72]”, the “% Efficacy” value is −28.57%.
Next, “24 (PKNFGATPNKSNNHAHYYNHPNPDF) [compound 24]”: −185.28%; “21 (VLGPKNFGATPNKSNNHAHYYNHPN) [compound 21]”: −50.24%; “80 (DNNHAHDDNHPNPDFPNDPHPDHPR) [compound 80]”: −214.13%.
Next, “70 (PKNFGADPNKDNNHAHDDNHPNPDF) [compound 70]”: −157.35%; “57 (QLLKDNDDPLVLGPKNFGADPNKDN) [compound 57]”: −1.36%.
Then “103 (MPPCLTTWLSQLIKDNSYPLVLGPKNFGATPNKSNNHAHYYNHPNPDFPNSPHPYHPR) [compound 103]”, with 86.32%; and “66 (LVLGPKNFGADPNKDNNHAHDDNHP) [compound 66]”, with −157.61%; and “107 (MPSCLTTWISSIISDNSYPLVLGPKNFGATPNKSNNHAHYYNHPNPDFPNSPHPYHPR) [compound 107]”, with 134.2%.
With “17 (SYPLVLGPKNFGATPNKSNNHAHYY) [compound 17]”, the “% Efficacy” value is reported as −195.89%.
Regarding “82 (PKNFGADPNKDNNHAHDDNHPNPNF) [compound 82]”, the “% Efficacy” value was −146.18%.
Next, “42 (TPNKSNNHAHYYNHPNPNFPNSPHP) [compound 42]”: −392.68%; “19 (PLVLGPKNFGATPNKSNNHAHYYNH) [compound 19]”: −191.36%; “35 (GPKNFGATPNKSNNHAHYYNHPNPN) [compound 35]”: 8.68%.
On to “92 (DNNHAHDDNHPNPNFPNDPHPDHPR) [compound 92]”, for which the “% Efficacy” value is −85.47%.
Then “64 (DPLVLGPKNFGADPNKDNNHAHDDN) [compound 64]”, with −254.41%; and “76 (DPNKDNNHAHDDNHPNPDFPNDPHP) [compound 76]”, with −184.63%.
As for “79 (KDNNHAHDDNHPNPDFPNDPHPDHP) [compound 79]”, the “% Efficacy” value is on record as −183.31%.
Then “18 (YPLVLGPKNFGATPNKSNNHAHYYN) [compound 18]”, with −133.09%; and “15 (DNSYPLVLGPKNFGATPNKSNNHAH) [compound 15]”, with 51.51%.
Take “85 (FGADPNKDNNHAHDDNHPNPNFPND) [compound 85]”: the “% Efficacy” value was −476.83%.
Consider “88 (DPNKDNNHAHDDNHPNPNFPNDPHP) [compound 88]”, for which the “% Efficacy” value is −84.19%.
Then “12 (LLKDNSYPLVLGPKNFGATPNKSNN) [compound 12]”, with −97.85%; and “49 (PCLDDWLDQLLKDNDDPLVLGPKNF) [compound 49]”, with −168.90%; and “23 (GPKNFGATPNKSNNHAHYYNHPNPD) [compound 23]”, with −210.91%.

The values above are taken from patent US20240285727A1, “NOVEL THERAPEUTIC PEPTIDES FOR NEURODEGENERATION” (UNIVERSITY OF SOUTHERN CALIFORNIA, priority 2021, published 2024).
